Experimental data published in US7655689B2, “Fused heterocyclic succinimide compounds and analogs thereof, modulators of nuclear hormone receptor function” (Bristol-Myers Squibb Company, priority 2000, dated 2010).
Read-outs that look alike come from different tables or passages of the source.

Assays:
glucocorticoid receptor = glucocorticoid receptor (Homo sapiens, UniProt P04150); conditions: concentration ≦10 μM, A549 cells
Procedure: A549 cells, which contain endogenous glucocorticoid receptor, were stably transfected with an AP-1 DNA binding site attached to the luciferase gene. […] Cells are plated the day before the assay at approximately 40000 cells/well. […] Activity is measured by analysis in a luminometer as compared to control experiments treated with buffer or dexamethasome.

AR [1] = molecular target: T1, AR (Rattus norvegicus, UniProt P15207)
T1 sequence (P15207 1-902): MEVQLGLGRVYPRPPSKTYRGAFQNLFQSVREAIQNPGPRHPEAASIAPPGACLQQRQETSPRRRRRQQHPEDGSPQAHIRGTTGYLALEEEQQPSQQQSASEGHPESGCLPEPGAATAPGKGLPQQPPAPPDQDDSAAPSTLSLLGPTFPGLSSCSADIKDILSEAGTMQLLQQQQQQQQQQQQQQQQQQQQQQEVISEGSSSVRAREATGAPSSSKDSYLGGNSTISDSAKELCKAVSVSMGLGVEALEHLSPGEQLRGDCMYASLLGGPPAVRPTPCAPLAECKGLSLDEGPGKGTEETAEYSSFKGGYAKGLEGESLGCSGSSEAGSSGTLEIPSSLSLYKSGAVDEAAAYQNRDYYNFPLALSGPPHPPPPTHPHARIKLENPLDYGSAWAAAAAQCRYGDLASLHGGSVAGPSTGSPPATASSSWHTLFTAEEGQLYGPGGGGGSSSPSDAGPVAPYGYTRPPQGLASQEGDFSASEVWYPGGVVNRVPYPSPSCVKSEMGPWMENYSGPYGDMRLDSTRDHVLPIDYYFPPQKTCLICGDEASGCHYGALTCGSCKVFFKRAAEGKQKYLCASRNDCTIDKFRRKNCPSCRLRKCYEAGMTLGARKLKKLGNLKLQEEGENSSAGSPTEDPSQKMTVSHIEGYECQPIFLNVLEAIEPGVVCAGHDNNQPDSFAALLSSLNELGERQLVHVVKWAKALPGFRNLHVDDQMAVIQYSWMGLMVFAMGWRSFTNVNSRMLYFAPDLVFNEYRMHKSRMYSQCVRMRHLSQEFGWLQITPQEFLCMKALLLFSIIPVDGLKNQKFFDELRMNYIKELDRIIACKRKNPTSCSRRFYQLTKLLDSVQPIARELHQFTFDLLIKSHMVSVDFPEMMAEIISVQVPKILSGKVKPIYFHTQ
Source text: The activity of compounds of the present invention as AR agonists was investigated in an immature male rat model, a recognized test of anabolic effects in muscle and sustaining effects in sex organs for a given compound, as described in L. G. Hershberger et al., Proc. Soc. […] Yak. Ken. Nem.
The basis of this assay lies in the well-defined action of androgenic agents on the maintenance and growth of muscle tissues and sexual accessory organs in animals and man. […] J. Anat. […] I. Quantitative data” Boll.-Soc. Ital. Biol. Sper. […] II. Electron-microscopic observations” Boll.-Soc. Ital. Biol. Sper. […] As described above, the effects of androgens on maintenance of male sexual accessory organs, such as the prostate and seminal vesicles, is well described. Castration results in rapid involution and atrophy of the prostate and seminal vesicles. This effect can be reversed by exogenous addition of androgens. Since both the levator ani muscle and the male sex organs are the tissues most responsive to the effects of androgenic agents, this model is used to determine the androgen dependent reversal of atrophy in the levator ani muscle and the sex accessory organs in immature castrated rats. Sexually mature rats (200-250 g, 6-8 weeks-old, Sprague-Dawley, Harlan) were acquired castrated from the vendor (Taconic). […]

AR [2] = molecular target: T1, AR; remark: listed apart in the source

Sequence of glucocorticoid receptor (P04150 whole entry): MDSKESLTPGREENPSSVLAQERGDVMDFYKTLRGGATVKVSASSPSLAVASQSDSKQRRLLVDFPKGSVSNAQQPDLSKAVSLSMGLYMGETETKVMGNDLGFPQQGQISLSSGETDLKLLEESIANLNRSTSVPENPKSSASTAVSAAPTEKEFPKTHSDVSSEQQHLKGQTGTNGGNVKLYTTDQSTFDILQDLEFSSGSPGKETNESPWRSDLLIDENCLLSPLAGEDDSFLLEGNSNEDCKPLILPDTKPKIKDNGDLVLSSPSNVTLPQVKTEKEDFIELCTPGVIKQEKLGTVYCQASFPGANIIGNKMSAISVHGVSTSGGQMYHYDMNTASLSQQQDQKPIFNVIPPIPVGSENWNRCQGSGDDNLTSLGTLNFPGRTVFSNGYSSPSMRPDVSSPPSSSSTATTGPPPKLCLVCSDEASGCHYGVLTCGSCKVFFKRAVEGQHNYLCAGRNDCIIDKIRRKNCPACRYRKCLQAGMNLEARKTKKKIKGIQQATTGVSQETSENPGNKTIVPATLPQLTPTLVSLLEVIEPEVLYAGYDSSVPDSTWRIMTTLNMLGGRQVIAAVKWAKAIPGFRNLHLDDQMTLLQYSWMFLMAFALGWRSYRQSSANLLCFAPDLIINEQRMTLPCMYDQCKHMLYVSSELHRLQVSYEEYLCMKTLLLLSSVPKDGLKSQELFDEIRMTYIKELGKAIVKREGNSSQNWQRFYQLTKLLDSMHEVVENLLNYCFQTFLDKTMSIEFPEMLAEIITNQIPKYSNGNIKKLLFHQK

| SMILES | suppression of activity (% inhibition of the reporter system vs buffer control with 10 ng/ml PMA) (glucocorticoid receptor) | EC50 (increase in organ weight) (AR [1]; castrated rats) | potency relative to free T (AR [1]; organ weight increase) | ED80 (AR [2]; immature castrated rat model) | EC50 (increase in organ weight) (AR [2]; immature castrated rats) | potency relative to free T (AR [2]; organ weight increase, immature castrated rats) |
| --- | --- | --- | --- | --- | --- | --- |
| C[C@@H]1C[C@H]2[C@@H]3CCC4=CC(=O)C=C[C@]4(C)[C@@]3(F)[C@@H](O)C[C@]2(C)[C@@]1(O)C(=O)CO [dexamethasone] | ~65% | – | – | – | – | – |
| CCC(=O)O[C@H]1CC[C@H]2[C@@H]3CCC4=CC(=O)CC[C@]4(C)[C@H]3CC[C@]12C [testosterone propionate, Testosterone Propionate] | – | ~0.03 mg | 10-30 fold | 0.1 mg | ~0.03 mg | 10-30 fold |
